Assay results published in US8936941B2, “Compositions useful for cancer detection and treatment, a cancer stem cell model, and methods of production and use thereof” (priority 2008, dated 2015).

Key:
[1] = test system: PICSC tumor xenografts; assay: PICSC generated isograft tumor growth in mice; format: in vivo; conditions: siRNA injected from day 15, 5 times at an interval of 3 days
Description: To determine whether targeted DCAMKL-1 downregulation and/or Notch inhibition affected […] generated isograft tumor growth, mice were treated with siRNA to DCAMKL-1 or the Notch inhibitor DAPT. After the tumors were allowed to develop (15 days), siRNA was injected a total of 5 times at an interval of 3 days as described earlier.

[2] = test system: DCAMKL-1; assay: siRNA knockdown of DCAMKL-1 in BxPC3 pancreatic cancer cells, real-time RT-PCR; format: cell-based, human
DCAMKL-1, sequence (O15075 other isoform, or with tags, fused parts or gaps): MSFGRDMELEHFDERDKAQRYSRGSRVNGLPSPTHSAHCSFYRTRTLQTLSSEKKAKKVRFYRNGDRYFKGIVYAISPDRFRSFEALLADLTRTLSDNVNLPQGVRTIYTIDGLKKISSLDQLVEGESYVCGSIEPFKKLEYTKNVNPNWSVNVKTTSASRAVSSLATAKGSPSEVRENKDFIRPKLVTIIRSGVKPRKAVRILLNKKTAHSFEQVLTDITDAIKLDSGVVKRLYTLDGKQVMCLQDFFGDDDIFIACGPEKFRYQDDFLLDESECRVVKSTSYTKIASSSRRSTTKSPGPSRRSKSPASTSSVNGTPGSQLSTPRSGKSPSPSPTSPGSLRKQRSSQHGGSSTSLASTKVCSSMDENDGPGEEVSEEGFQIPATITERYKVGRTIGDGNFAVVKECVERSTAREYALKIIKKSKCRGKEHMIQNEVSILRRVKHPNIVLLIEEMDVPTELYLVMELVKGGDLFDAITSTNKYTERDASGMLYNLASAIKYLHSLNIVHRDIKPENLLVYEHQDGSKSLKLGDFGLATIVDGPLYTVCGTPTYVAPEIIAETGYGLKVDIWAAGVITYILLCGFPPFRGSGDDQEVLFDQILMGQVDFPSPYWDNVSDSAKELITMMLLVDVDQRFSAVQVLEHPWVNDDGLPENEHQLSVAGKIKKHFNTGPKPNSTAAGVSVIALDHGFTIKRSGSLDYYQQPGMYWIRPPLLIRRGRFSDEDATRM
Description: Cell Culture: AsPC-1 and BxPC3 human pancreatic adenocarcinoma cell lines were obtained from the American Type Culture Collection and grown in Dulbecco's modified Eagle medium (DMEM) supplemented with 10% fetal bovine serum and 100 U/mL penicillin-streptomycin in a humidified chamber at 37° C. with 5% CO2.
Silencer RNA: DCAMKL-1 small interfering RNA (siRNA) (si-DCAMKL-1) sequence targeting the coding region of DCAMKL-1 (accession No. NM_004734; SEQ ID NO:1) ([…]tt (SEQ ID NO:3)) and scrambled siRNAs (si-Scr) not matching any of the human genes were obtained (Ambion Inc, Austin, Tex.) and transfected using siPORT™ NeoFX™ (Ambion, Inc).
Real-time Reverse Transcription-Polymerase Chain Reaction Analyses: Total RNA isolated from human pancreatic cancer cells or cells sorted from normal mouse pancreas were subjected to reverse transcription with Superscript II RNase H-Reverse Transcriptase and random hexanucleotide primers (Invitrogen, Carlsbad, Calif.). […] The changes in mRNA were expressed as fold change relative to control with ±SEM value.
miRNA Analysis: total RNA isolated from human pancreatic cancer cell lines or cells sorted from normal mouse pancreas was subjected to reverse transcription with Superscript II RNase H-Reverse Transcriptase and random hexanucleotide primers (Invitrogen). […] The changes in pri-miRNA were expressed as fold change relative to control with ±SEM values.

[3] = test system: let-7 family binding sites (similar to KRAS 3' UTR); assay: KRAS-Luc luciferase reporter gene assay in AsPC-1 cells; format: cell-based, human
Text: Luciferase Reporter Gene Assay: pLet7a-Luc reporter vector contains a let-7a miRNA specific binding site at the 3′ UTR of the firefly (Photinus pyralis) luciferase gene, pMiR-144-Luc reporter vector containing miR-144 miRNA specific binding site at the 3′UTR of the firefly luciferase gene and KRAS-Luc reporter vector containing specific binding sites for let-7 family members at the 3′UTR of the firefly luciferase gene were obtained from Signosis, Inc. (Sunnyvale, Calif.). Human pancreatic cancer cell lines were transfected with the pLet7a-Luc, pMiR-144-Luc and KRAS-Luc reporter vectors separately with Renilla luciferase expressing plasmid pRL-TK (Promega) along with DCAMKL-1, or scrambled siRNA-using siPORT™ NeoFX™ transfection reagent (Ambion, Inc.). Luciferase activity was determined as per the manufacturer's instructions (Dual Luciferase Reporter Assay System; Promega) using a BioTek Synergy HT (Winooski, Vt.) as described herein above. The activity, normalized to Renilla luciferase activity, is presented as relative luciferase units relative to control with ±SEM values. Assays were performed in triplicate wells, and experiments were repeated 3 times.

[4] = test system: PICSCs; assay: Growth and survival of PICSCs after drug treatment; format: cell-based, mouse; conditions: siRNA transfection, 10 nM
Description: The PICSCs cells were treated with 100 μM drug (suprapharmacological dose) for 48 hours, and their growth and survival were evaluated. […] Moreover, the in vitro testing strategies allows for a mechanistic study of such compounds.

Substance: si-DCAMKL-1: siRNA targeting the coding region of DCAMKL-1 (NM_004734), sequence GGGAGUGAGAACAAUCUAC (SEQ ID NO:3) (chemistry not given here; listed as Homo sapiens)
- isograft tumor growth [1]: growth arrest
- increase in pri-let-7a miRNA ([2]; compared to control and siSCR): 3 fold
- Notch1 mRNA ([2]; compared to siSCR or control): significant decrease
- luciferase activity (KRAS-Luc, let-7 family binding sites) [3]: dose-dependent reduction
- neurite formation, cell growth and cell death of PICSCs [4]: inhibited neurite formation, suppressed cell growth and induced cell death
